Literature values, collected in PMC8198792, “Prediction of Anticancer Peptides with High Efficacy and Low Toxicity by Hybrid Model Based on 3D Structure of Peptides” (International Journal of Molecular Sciences, 2021).
Like-named read-outs stand apart in the source and are kept apart here.

Key:
[1] = test system: cancer cell lines; parameters: method as in 6 sources, ref CancerPPD [45] and SATPdb ||| ref CancerPPD/SATPdb ||| ref CancerPPD, SATPdb, Swissprot (PDB) ||| ref CancerPPD/SATPdb/Swissprot(PDB) ||| ref CancerPPD / SATPdb ||| ...; settings: cited from earlier work
Text: Supplement ijms-22-05630-s001.zip/ACPs(seguence).xlsx, sheet "D1" | column: Activity || Supplement ijms-22-05630-s001.zip/ACPs(seguence).xlsx, sheet "D2" | column: Activity || Supplement ijms-22-05630-s001.zip/ACPs(seguence).xlsx, sheet "D3" | column: Activity || (+ 2 further places)

[2] = test system: many types of cells, including non-cancer cells; settings: cited from earlier work; for Activity: toxic peptides dataset TD2, class label 1 (toxic, positive set) or 0 (non-toxic AMP, negative set), ref SATPdb
[3] = ACPs dataset D3 (sheet "D3"), label 1 = ACP, 0 = non-ACP, ref CancerPPD/SATPdb
[4] = ACPs dataset D4 (sheet "D4"), label 1 = ACP, 0 = non-ACP, ref CancerPPD / SATPdb
[5] = ACPs dataset D5, sheet "D5", label 1 = ACP, 0 = non-ACP, ref CancerPPD [45] and SATPdb
[6] = ACPs dataset D3 (supplement sheet "D3"), 1 = ACP, 0 = non-ACP, ref CancerPPD [45] and SATPdb

Substance | Activity [1, 3] | Activity [1, 4] | Activity [1, 5] | Activity [2] | Activity [1, 6] | Activity ([1]; ACPs dataset D1, 1 = ACP (positive), 0 = non-ACP (negative), label taken from databases, ref CancerPPD [45] and SATPdb) | Activity ([1]; ACPs dataset D4 (sheet "D4"), label 1 = ACP (CancerPPD ID), 0 = non-ACP (non-anticancer AMP, SATPdb ID), ref CancerPPD [45] and SATPdb) | Activity (dataset TD1, toxic 1 / non-toxic 0) ([2]; natural toxic peptide dataset TD1, label collected from database, ref SATPdb [34])
FLWGLIPGAISAVTSLIKK [satpdb12159] | 0 | 0 | 0 | 0 |  |  |  | 
ILPLVGNLLNDLL [satpdb10023] |  | 0 | 0 | 0 | 0 |  |  | 
GLFGILGSVAKHVLPHVIPVVAEHL [satpdb11946] | 0 | 0 | 0 | 0 |  |  |  | 
SILPTIVSFLTKFL [satpdb10195] |  | 0 | 0 | 0 | 0 |  |  | 
ILPFLAGLFSKIL [satpdb10916] |  | 0 | 0 | 0 | 0 |  |  | 
ILGPVLGLVGNALGGLIKKL [satpdb12428] | 0 | 0 | 0 | 1 |  |  |  | 
GVVTDLLKTAGKLLGNLFGSLSG [satpdb14110] | 0 | 0 | 0 | 1 |  |  |  | 
GLLSGILNTAGGLLGNLIGSLSN [satpdb13955] | 0 | 0 | 0 | 0 |  |  |  | 
GFGSVLGKALKFGANLL [satpdb10971] |  | 0 | 0 | 0 | 0 |  |  | 
KWKSFIKKLTSAAKKVVTTAKPLISS [satpdb10912] |  | 0 | 0 | 0 | 0 |  |  | 
GMASKAGSVLGKVAKVALKAAL [satpdb13618] | 0 | 0 | 0 | 0 |  |  |  | 
FLPFLKSILGKIL [satpdb13847] | 0 | 0 | 0 | 0 |  |  |  | 
VOLFPWFNQY [satpdb12517] | 0 | 0 | 0 | 0 |  |  |  | 
FLPLLASLFSGLF [satpdb11101] |  | 0 | 0 | 0 | 0 |  |  | 
VIPFVASVAAEMMQHVYCAASKKC [satpdb10043, toxic peptide, datasets TD1 and TD3] |  |  |  |  |  | 0 | 0 | 1
GWRLLLKKAEVKTVGKLALKHYL [satpdb14772] | 0 | 0 | 0 | 0 |  |  |  | 
AVLDILKDVGKGLLSHFMEKV [satpdb13844] | 0 | 0 | 0 | 0 |  |  |  | 
FIGAILPAIAGLVGGLINR [satpdb12061] | 0 | 0 | 0 | 1 |  |  |  | 
AMWKDVLKKIGTVALHAGKAALGAVADTISQ [satpdb14434] | 0 | 0 | 0 | 0 |  |  |  | 
FIGAVAGLLSKIF [satpdb10850] |  | 0 | 0 | 1 | 0 |  |  | 
LIGPVLGLVGSALGGLLKKI [satpdb10453] |  | 0 | 0 | 1 | 0 |  |  | 
VKLfPVKLfP [satpdb12197] | 0 | 0 | 0 | 1 |  |  |  | 
FLGALWNVAKSVF [satpdb13946] | 0 | 0 | 0 | 0 |  |  |  | 

Substance | Activity [1, 3] | Activity [1, 4] | Activity [1, 5] | Activity [2] | Activity [1, 6] | Activity ([1]; ACPs dataset D1, 1 = ACP (positive), 0 = non-ACP (negative), label taken from databases, ref CancerPPD [45] and SATPdb) | Activity ([1]; ACPs dataset D4 (sheet "D4"), label 1 = ACP (CancerPPD ID), 0 = non-ACP (non-anticancer AMP, SATPdb ID), ref CancerPPD [45] and SATPdb) | Activity (dataset TD1, toxic 1 / non-toxic 0) ([2]; natural toxic peptide dataset TD1, label collected from database, ref SATPdb [34])
FFPIVGKLLFGLSGLL [satpdb12681] | 0 | 0 | 0 | 0 |  |  |  | 
KLGFENFLVKALKTVMHVPTSPLL [satpdb10107] |  | 0 | 0 | 1 | 0 |  |  | 
LLSLVPHAINAVSAIAKHF [satpdb10338] |  | 0 | 0 | 0 | 0 |  |  | 
GILDVAKTLVGKLRNVLGI [satpdb10523] |  | 0 | 0 | 0 | 0 |  |  | 
ILQKAVLDCLKAAGSSLSKAAITAIYNKIT [satpdb12333] | 0 | 0 | 0 | 0 |  |  |  | 
ACNFQSCWATCQAQHSIYFRRAFCDRSQCKCVFVRG [satpdb14312] | 0 | 0 | 0 | 0 |  |  |  | 
GLLGTLGNLLNGLGL [satpdb12279] | 0 | 0 | 0 | 0 |  |  |  | 
RGGRLCYCRRRFCICV [satpdb14720] | 0 | 0 | 0 | 0 |  |  |  | 
IWSAIWSGIKGLL [satpdb12218] | 0 | 0 | 0 | 0 |  |  |  | 
GIGGALLSVGKLALKGLANVLADKFAN [satpdb14012] | 0 | 0 | 0 | 1 |  |  |  | 
GLLDALSGILGL [satpdb12939] | 0 | 0 | 0 | 0 |  |  |  | 
FLPILINLIHKGLL [satpdb14138] | 0 | 0 | 0 | 0 |  |  |  | 
FLSLLPSLVSGAVSLVKIL [satpdb10512] |  | 0 | 0 | 0 | 0 |  |  | 
VIPIVSGLLSSLL [satpdb12918] | 0 | 0 | 0 | 0 |  |  |  | 
HFLGTLVNLAKKIL [satpdb13929] | 0 | 0 | 0 | 1 |  |  |  | 
ILPILGNLLNGLL [satpdb12015] | 0 | 0 | 0 | 1 |  |  |  | 
LSPNLLKSLL [satpdb13883] | 0 | 0 | 0 | 0 |  |  |  | 
KCNTATCATQRLANFLVHSSNNFGAILSSTNVGSNTY [satpdb11357] |  | 0 | 0 | 0 | 0 |  |  | 
FLPFLAKILTGVL [satpdb14646] | 0 | 0 | 0 | 0 |  |  |  | 
GKVLDKFGKIVGKVLKQLKKVSAVAKV [satpdb11239] |  | 0 | 0 | 1 | 0 |  |  | 
NLLGSLLKTGLKVGSNLL [satpdb11204] |  | 0 | 0 | 1 | 0 |  |  | 
VOLFPVOLFP [satpdb12868] | 0 | 0 | 0 | 0 |  |  |  | 
GLWSTIKQKGKEAAIAAAKAAGQAVLNSASEAL [satpdb11971] | 0 | 0 | 0 | 0 |  |  |  | 
